Tested on: basilar artery of a rabbit (contraction induced by KCl)
Experiment: Contraction of removed rabbit basilar artery in a hyperpotassic medium (calcium antagonistic activity)
Assay type: cell-based
Details: Oryctolagus cuniculus, KCl at 35 mmoles, read-out: IC50 (concentration which reduces by 50% the amplitude of the contraction induced by KCl)
Method: The protocol of this test is the following. The rabbit is anaesthetized with pentobarbital at a dose of 30 mg/kg then sacrificed by exsanguination and decapitated at the third cervical vertebra. The basilar artery is removed (1.5 cm) between the vertebral arteries and the Willis's polygon. The basilar artery is then cut in a spiral at an angle of 45°. It is fixed by means of a curved needle between an L shaped glass support and a movement sensor (Grass, type FT03). A mechanical tension of 500 mg is applied to the vessel, before letting it reach its equilibrium condition.
For a period of 1 hour, the vessel is rinsed every 20 minutes, until a stable level is obtained.
The tonic contraction following depolarization caused by KCl is dependent on the calcic movements for it is abolished by the suppression of calcium in the survival medium.
The concentrations (in nM) are measured which reduce by 50% the amplitude of the contraction induced by the KCl at 35 mmoles.

IC50	SMILES
10 nM	CCCOc1ccc(OC)c(OCCN2CCCCC2)c1C(O)CCc1ccc(O)cc1 (stereo not drawn) [compound 152]
> 100 nM	COc1ccc(OCc2ccccc2)c(C(O)CCc2ccc(O)cc2)c1OCCN1CCCCC1 (stereo not drawn) [compound 146]
30 nM	COc1ccc(C)c(C(O)CCc2ccc(O)cc2)c1OCCN1CCCCC1 (stereo not drawn) [compound 177]
120 nM	CCCOc1ccc(OC)c(C(O)CCc2ccc(O)cc2)c1OCCN1CCCCC1 (stereo not drawn) [compound 166]
> 100 nM	COc1ccc(O)c(OCCN2CCCCC2)c1C(O)CCc1ccc(O)cc1 (stereo not drawn) [compound 169]
> 100 nM	COCCOc1ccc(OC)c(C(O)CCc2ccc(O)cc2)c1OCCN1CCCCC1 (stereo not drawn) [compound 171]
> 100 nM	COc1ccc(O)c(C(O)CCc2ccc(O)cc2)c1OCCN1CCCCC1 (stereo not drawn) [compound 148]
31 nM	CCSc1ccc(OC)c(C(O)CCc2ccc(O)cc2)c1OCCN1CCCCC1 (stereo not drawn) [compound 175]
> 100 nM	COc1ccc(OCc2ccccc2)c(OCCN2CCCCC2)c1C(O)CCc1ccc(O)cc1 (stereo not drawn) [compound 168]
53 nM	C=CCOc1ccc(OC)c(C(O)CCc2ccc(O)cc2)c1OCCN1CCCCC1 (stereo not drawn) [compound 167]
> 100 nM	COc1ccc(OC2CCCCC2)c(C(O)CCc2ccc(O)cc2)c1OCCN1CCCCC1 (stereo not drawn) [compound 158]
13 nM	COc1ccc(OC(C)C)c(C(O)CCc2ccc(O)cc2)c1OCCN1CCCCC1 (stereo not drawn) [compound 154]
> 100 nM	COc1ccc(OC2CCCCC2)c(OCCN2CCCCC2)c1C(O)CCc1ccc(O)cc1 (stereo not drawn) [compound 173]
> 100 nM	COc1ccc(OCC(F)(F)F)c(OCCN2CCCCC2)c1C(O)CCc1ccc(O)cc1 (stereo not drawn) [compound 137]

SMILES	IC50
CCCCOc1ccc(OC)c(OCCN2CCCCC2)c1C(O)CCc1ccc(O)cc1 (stereo not drawn) [compound 150]	100 nM
CCOc1ccc(OC)c(C(O)CCc2ccc(O)cc2)c1OCCN1CCCCC1 (stereo not drawn) [compound 164]	24 nM
CCCCCCCCOc1ccc(OC)c(OCCN2CCCCC2)c1C(O)CCc1ccc(O)cc1 (stereo not drawn) [compound 156]	> 100 nM
CCOc1ccc(OC)c(OCCN2CCCCC2)c1C(O)CCc1ccc(O)cc1 (stereo not drawn) [compound 160]	6 nM
COc1ccc(SC)c(OCCN2CCCCC2)c1C(O)CCc1ccc(O)cc1 (stereo not drawn) [compound 174]	27 nM

Tested on: not listed separately
Experiment: Acute toxicity (LD50) in mice, method of Litchfield and Wilcoxon
Details: mouse, in vivo, iv

SMILES	LD50
CCOc1ccc(OC)c(C(O)CCc2ccc(O)cc2)c1OCCN1CCCCC1 (stereo not drawn) [compound 164]	17 mg/kg
COc1ccc(SC)c(OCCN2CCCCC2)c1C(O)CCc1ccc(O)cc1 (stereo not drawn) [compound 174]	22 mg/kg

Reference: patent US5144029A, “Derivatives of 1-[3-(4-hydroxyphenyl) 1-hydroxy 1-propyl] benzene substituted in position 2 by an aminoalkyleneoxy chain, the method of preparing same and the application thereof to therapeutics” (Delalande S.A., priority 1988, dated 1992)
